PMC8401933 (Molecules, 2021)
“Also recorded” adds a separate entry of the source.

Assays:
FLT1 = molecular target: T1, FLT1 (Homo sapiens, UniProt P17948); experiment: KINOMEscan binding; settings: read-out: Percent Control
T1 construct: purchased Eurofins DiscoverX KINOMEscan

TAOK2 = molecular target: T2, TAOK2 (Homo sapiens, UniProt Q9UL54); experiment: KINOMEscan binding; settings: read-out: Percent Control
T2 construct: purchased Eurofins DiscoverX KINOMEscan

CAMKK2 = molecular target: T3, CAMKK2 (Homo sapiens, UniProt Q96RR4); experiment: KINOMEscan binding; settings: read-out: Percent Control
T3 construct: purchased Eurofins DiscoverX KINOMEscan

SGK = molecular target: T4, SGK (Homo sapiens, UniProt O00141); experiment: KINOMEscan binding; settings: read-out: Percent Control
T4 construct: purchased Eurofins DiscoverX KINOMEscan

PIK3CA(H1047Y) = molecular target: T5, PIK3CA(H1047Y) (Homo sapiens, UniProt P42336, H1047Y); experiment: KINOMEscan binding; settings: read-out: Percent Control
T5 construct: purchased Eurofins DiscoverX KINOMEscan

IGF1R = molecular target: T6, IGF1R (Homo sapiens, UniProt P08069); experiment: KINOMEscan binding; settings: read-out: Percent Control
T6 construct: purchased Eurofins DiscoverX KINOMEscan

EPHB6 = molecular target: T7, EPHB6 (Homo sapiens, UniProt O15197); experiment: KINOMEscan binding; settings: read-out: Percent Control
T7 construct: purchased Eurofins DiscoverX KINOMEscan

LIMK2 = molecular target: T8, LIMK2 (Homo sapiens, UniProt P53671); experiment: KINOMEscan binding; settings: read-out: Percent Control
T8 construct: purchased Eurofins DiscoverX KINOMEscan

PAK7 = molecular target: T9, PAK7 (Homo sapiens, UniProt Q9P286); experiment: KINOMEscan binding; settings: read-out: Percent Control
T9 construct: purchased Eurofins DiscoverX KINOMEscan

KIT(A829P) = molecular target: T10, KIT(A829P) (Homo sapiens, UniProt P10721, A829P); experiment: KINOMEscan binding; settings: read-out: Percent Control
T10 construct: purchased Eurofins DiscoverX KINOMEscan

MEK6 = molecular target: T11, MEK6 (Homo sapiens, UniProt P52564); experiment: KINOMEscan binding; settings: read-out: Percent Control
T11 construct: purchased Eurofins DiscoverX KINOMEscan

PAK1 = molecular target: T12, PAK1 (Homo sapiens, UniProt Q13153); experiment: KINOMEscan binding; settings: read-out: Percent Control
T12 construct: purchased Eurofins DiscoverX KINOMEscan

3T3-L1 cells = experiment: Adipocyte differentiation, Oil Red O staining; type: cell-based; settings: for quantity of lipid droplets (ORO staining): CX-4945 5 μM, KD025 3 μM
Description: The preadipocyte 3T3-L1 cell line was kindly provided by Dr. Hyun-Sung Park (University of Seoul) and cultured in Dulbecco’s modified Eagle’s medium (DMEM, Sigma-Aldrich) supplied with 10% heat-inactivated newborn calf serum (Invitrogen, CA, USA), 100 units/mL penicillin, and 100 µg/mL streptomycin (Cellgro, VA, USA). The cells were maintained in an incubator at 37 °C and 5% CO2. To initiate differentiation, the cells were incubated for additional days after 100% confluence and then further incubated in a medium containing fetal bovine serum (FBS) and a differentiation cocktail (DMI, 1 μM dexamethasone, 0.5 mM 3-isobutyl-1-methylxanthine, and 5 μg/mL insulin) as previously described. In brief, at day 3, the culture medium was replaced with DMEM/10%FBS containing 5 µg/mL insulin. Then, growth medium was changed every 2 days.
Lipid droplets of cells were stained using ORO (Sigma-Aldrich, MA, USA). In brief, the cells were washed with phosphate buffered saline and incubated with 10% formalin for 5 min. The cells were then fixed with the same volume of fresh formalin for at least 1 h. Subsequently, the cells were washed with 60% isopropanol, air dried completely, and then stained with ORO working solution (1% ORO/isopropanol: distilled water = 3:2). The stained cells were washed with water four times. Cell images were taken by a microscope (Nikon Eclipse TS100-F, Japan). Then, 100% isopropanol was added and incubated for 10 min to quantify the intensity of ORO. The quantity of extracted dye was obtained by obtaining absorbance at 540 nm in the Synergy H1 hybrid reader (BioTek, VT, USA).

CSNK1G3 = molecular target: T13, CSNK1G3 (Homo sapiens, UniProt Q9Y6M4); experiment: KINOMEscan binding; settings: read-out: Percent Control
T13 construct: purchased Eurofins DiscoverX KINOMEscan

YSK4 = molecular target: T14, YSK4 (Homo sapiens, UniProt Q56UN5); experiment: KINOMEscan binding; settings: read-out: Percent Control
T14 construct: purchased Eurofins DiscoverX KINOMEscan

LATS1 = molecular target: T15, LATS1 (Homo sapiens, UniProt O95835); experiment: KINOMEscan binding; settings: read-out: Percent Control
T15 construct: purchased Eurofins DiscoverX KINOMEscan

EPHA3 = molecular target: T16, EPHA3 (Homo sapiens, UniProt P29320); experiment: KINOMEscan binding; settings: read-out: Percent Control
T16 construct: purchased Eurofins DiscoverX KINOMEscan

AKT2 = molecular target: T17, AKT2 (Homo sapiens, UniProt P31751); experiment: KINOMEscan binding; settings: read-out: Percent Control
T17 construct: purchased Eurofins DiscoverX KINOMEscan

FLT3-autoinhibited = molecular target: T18, FLT3-autoinhibited (Homo sapiens, UniProt P36888); experiment: KINOMEscan binding; settings: read-out: Percent Control
T18 construct: purchased Eurofins DiscoverX KINOMEscan

[1] = molecular target: T19, RPS6KA5(Kin.Dom.1-N-terminal) (Homo sapiens, UniProt O75582); experiment: KINOMEscan binding; settings: read-out: Percent Control
T19 construct: RPS6KA5(Kin.Dom.1-N-terminal); purchased Eurofins DiscoverX KINOMEscan

[2] = molecular target: T20, JAK1(JH1domain-catalytic) (Homo sapiens, UniProt P23458); experiment: KINOMEscan binding; settings: read-out: Percent Control
T20 construct: JAK1(JH1domain-catalytic); purchased Eurofins DiscoverX KINOMEscan

PKAC-alpha = molecular target: T21, PKAC-alpha (Homo sapiens, UniProt P17612); experiment: KINOMEscan binding; settings: read-out: Percent Control
T21 construct: purchased Eurofins DiscoverX KINOMEscan

NLK = molecular target: T22, NLK (Homo sapiens, UniProt Q9UBE8); experiment: KINOMEscan binding; settings: read-out: Percent Control
T22 construct: purchased Eurofins DiscoverX KINOMEscan

GRK2 = molecular target: T23, GRK2 (Homo sapiens, UniProt P25098); experiment: KINOMEscan binding; settings: read-out: Percent Control
T23 construct: purchased Eurofins DiscoverX KINOMEscan

CDK4-cyclinD1 = molecular target: T24, CDK4-cyclinD1 (Homo sapiens, UniProt P11802); experiment: KINOMEscan binding; settings: read-out: Percent Control
T24 construct: purchased Eurofins DiscoverX KINOMEscan

TIE2 = molecular target: T25, TIE2 (Homo sapiens, UniProt Q02763); experiment: KINOMEscan binding; settings: read-out: Percent Control
T25 construct: purchased Eurofins DiscoverX KINOMEscan

TSSK1B = molecular target: T26, TSSK1B (Homo sapiens, UniProt Q9BXA7); experiment: KINOMEscan binding; settings: read-out: Percent Control
T26 construct: purchased Eurofins DiscoverX KINOMEscan

PKN2 = molecular target: T27, PKN2 (Homo sapiens, UniProt Q16513); experiment: KINOMEscan binding; settings: read-out: Percent Control
T27 construct: purchased Eurofins DiscoverX KINOMEscan

CSNK1A1 = molecular target: T28, CSNK1A1 (Homo sapiens, UniProt P48729); experiment: KINOMEscan binding; settings: read-out: Percent Control
T28 construct: purchased Eurofins DiscoverX KINOMEscan

MYLK4 = molecular target: T29, MYLK4 (Homo sapiens, UniProt Q86YV6); experiment: KINOMEscan binding; settings: read-out: Percent Control
T29 construct: purchased Eurofins DiscoverX KINOMEscan

HCK = molecular target: T30, HCK (Homo sapiens, UniProt P08631); experiment: KINOMEscan binding; settings: read-out: Percent Control
T30 construct: purchased Eurofins DiscoverX KINOMEscan

AAK1 = molecular target: T31, AAK1 (Homo sapiens, UniProt Q2M2I8); experiment: KINOMEscan binding; settings: read-out: Percent Control
T31 construct: purchased Eurofins DiscoverX KINOMEscan

DCAMKL3 = molecular target: T32, DCAMKL3 (Homo sapiens, UniProt Q9C098); experiment: KINOMEscan binding; settings: read-out: Percent Control
T32 construct: purchased Eurofins DiscoverX KINOMEscan

T19 sequence (O75582 1-387 limits assumed): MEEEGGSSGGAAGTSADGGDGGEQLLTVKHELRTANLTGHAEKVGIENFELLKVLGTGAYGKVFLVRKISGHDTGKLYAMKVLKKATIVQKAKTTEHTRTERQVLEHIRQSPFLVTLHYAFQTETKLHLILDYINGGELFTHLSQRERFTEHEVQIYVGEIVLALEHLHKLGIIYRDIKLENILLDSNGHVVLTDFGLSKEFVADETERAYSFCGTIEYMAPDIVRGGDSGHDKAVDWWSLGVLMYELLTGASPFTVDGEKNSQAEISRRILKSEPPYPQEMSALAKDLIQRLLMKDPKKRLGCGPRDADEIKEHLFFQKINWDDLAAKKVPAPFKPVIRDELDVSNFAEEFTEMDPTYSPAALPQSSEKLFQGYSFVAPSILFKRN
T3 sequence (Q96RR4 whole entry): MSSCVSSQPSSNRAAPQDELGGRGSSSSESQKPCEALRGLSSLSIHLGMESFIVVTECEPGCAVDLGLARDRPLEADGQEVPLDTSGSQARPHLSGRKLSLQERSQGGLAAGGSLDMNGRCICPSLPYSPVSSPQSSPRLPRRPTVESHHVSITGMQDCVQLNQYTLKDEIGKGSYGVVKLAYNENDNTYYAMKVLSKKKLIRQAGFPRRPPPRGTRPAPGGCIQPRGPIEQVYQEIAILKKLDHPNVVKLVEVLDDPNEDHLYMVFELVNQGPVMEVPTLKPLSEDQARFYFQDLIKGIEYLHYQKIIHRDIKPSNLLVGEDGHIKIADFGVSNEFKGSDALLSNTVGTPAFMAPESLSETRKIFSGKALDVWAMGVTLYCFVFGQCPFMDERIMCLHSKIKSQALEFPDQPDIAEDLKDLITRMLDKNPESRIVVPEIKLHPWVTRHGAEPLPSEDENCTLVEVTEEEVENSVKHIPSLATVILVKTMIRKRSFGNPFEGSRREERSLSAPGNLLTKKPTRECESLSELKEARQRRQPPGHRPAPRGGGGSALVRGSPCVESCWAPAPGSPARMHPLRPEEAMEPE
T26 sequence (Q9BXA7 whole entry): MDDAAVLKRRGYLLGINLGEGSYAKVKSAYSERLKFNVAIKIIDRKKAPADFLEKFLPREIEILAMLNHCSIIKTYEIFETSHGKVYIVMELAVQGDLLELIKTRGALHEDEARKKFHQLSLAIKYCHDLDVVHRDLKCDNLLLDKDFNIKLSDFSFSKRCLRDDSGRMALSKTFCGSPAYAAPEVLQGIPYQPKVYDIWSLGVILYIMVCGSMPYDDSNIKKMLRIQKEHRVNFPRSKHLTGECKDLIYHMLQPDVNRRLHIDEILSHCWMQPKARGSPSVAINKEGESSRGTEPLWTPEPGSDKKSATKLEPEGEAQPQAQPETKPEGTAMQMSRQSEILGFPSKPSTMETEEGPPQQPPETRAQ
T6 sequence (P08069 31-1367): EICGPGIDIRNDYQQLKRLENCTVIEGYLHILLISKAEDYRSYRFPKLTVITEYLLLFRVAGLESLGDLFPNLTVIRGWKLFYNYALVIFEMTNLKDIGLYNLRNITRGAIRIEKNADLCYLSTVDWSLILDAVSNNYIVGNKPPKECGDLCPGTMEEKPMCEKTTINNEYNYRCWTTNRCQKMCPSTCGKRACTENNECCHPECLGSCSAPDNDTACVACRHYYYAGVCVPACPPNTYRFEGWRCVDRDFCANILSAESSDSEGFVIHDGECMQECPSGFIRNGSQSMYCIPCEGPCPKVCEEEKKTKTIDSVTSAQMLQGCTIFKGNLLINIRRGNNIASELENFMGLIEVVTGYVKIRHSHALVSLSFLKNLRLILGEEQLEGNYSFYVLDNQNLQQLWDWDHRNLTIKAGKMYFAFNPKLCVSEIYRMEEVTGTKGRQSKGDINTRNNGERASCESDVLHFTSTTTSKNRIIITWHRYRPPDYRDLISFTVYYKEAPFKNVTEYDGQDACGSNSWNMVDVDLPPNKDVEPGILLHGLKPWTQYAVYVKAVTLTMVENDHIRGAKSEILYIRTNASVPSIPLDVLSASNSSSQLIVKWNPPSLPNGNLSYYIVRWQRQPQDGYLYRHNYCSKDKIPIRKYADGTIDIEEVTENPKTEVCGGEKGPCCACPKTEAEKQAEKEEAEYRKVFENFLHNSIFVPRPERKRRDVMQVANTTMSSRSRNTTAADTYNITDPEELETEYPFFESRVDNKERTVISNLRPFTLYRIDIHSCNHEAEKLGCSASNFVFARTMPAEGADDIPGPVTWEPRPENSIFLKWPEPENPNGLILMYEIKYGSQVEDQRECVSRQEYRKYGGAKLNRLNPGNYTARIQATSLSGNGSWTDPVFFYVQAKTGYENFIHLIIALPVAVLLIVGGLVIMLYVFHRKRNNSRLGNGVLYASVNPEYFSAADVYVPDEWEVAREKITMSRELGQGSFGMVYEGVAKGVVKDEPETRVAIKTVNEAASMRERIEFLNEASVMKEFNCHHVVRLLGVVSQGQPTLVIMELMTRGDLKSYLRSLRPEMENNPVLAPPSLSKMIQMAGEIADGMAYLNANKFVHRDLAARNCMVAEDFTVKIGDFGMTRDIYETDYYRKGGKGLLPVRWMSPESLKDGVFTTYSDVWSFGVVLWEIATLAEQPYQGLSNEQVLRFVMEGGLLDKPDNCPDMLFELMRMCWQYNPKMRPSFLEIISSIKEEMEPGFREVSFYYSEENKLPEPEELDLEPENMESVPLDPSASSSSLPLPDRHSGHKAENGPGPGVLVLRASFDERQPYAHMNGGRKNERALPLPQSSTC
T11 sequence (P52564 whole entry): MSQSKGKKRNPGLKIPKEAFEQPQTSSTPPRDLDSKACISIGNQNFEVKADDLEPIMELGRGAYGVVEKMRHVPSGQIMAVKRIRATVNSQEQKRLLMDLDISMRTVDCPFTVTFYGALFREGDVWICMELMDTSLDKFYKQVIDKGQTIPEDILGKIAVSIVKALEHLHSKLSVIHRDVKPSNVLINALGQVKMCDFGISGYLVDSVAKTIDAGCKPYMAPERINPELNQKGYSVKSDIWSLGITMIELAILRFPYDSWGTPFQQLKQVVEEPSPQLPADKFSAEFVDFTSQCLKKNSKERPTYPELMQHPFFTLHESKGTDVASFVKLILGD
T17 sequence (P31751 whole entry): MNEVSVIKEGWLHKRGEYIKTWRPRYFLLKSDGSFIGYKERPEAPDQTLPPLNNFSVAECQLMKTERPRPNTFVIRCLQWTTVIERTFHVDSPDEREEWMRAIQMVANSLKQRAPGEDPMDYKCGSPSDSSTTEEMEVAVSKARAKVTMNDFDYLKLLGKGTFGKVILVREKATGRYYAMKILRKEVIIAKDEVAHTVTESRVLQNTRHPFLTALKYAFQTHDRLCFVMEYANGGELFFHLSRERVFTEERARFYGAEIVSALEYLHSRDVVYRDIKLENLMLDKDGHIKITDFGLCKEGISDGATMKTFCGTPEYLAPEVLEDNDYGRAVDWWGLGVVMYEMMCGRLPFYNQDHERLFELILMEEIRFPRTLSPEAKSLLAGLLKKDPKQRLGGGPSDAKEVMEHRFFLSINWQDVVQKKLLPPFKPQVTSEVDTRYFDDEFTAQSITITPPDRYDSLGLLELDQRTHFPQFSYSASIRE
T18 sequence (P36888 27-993): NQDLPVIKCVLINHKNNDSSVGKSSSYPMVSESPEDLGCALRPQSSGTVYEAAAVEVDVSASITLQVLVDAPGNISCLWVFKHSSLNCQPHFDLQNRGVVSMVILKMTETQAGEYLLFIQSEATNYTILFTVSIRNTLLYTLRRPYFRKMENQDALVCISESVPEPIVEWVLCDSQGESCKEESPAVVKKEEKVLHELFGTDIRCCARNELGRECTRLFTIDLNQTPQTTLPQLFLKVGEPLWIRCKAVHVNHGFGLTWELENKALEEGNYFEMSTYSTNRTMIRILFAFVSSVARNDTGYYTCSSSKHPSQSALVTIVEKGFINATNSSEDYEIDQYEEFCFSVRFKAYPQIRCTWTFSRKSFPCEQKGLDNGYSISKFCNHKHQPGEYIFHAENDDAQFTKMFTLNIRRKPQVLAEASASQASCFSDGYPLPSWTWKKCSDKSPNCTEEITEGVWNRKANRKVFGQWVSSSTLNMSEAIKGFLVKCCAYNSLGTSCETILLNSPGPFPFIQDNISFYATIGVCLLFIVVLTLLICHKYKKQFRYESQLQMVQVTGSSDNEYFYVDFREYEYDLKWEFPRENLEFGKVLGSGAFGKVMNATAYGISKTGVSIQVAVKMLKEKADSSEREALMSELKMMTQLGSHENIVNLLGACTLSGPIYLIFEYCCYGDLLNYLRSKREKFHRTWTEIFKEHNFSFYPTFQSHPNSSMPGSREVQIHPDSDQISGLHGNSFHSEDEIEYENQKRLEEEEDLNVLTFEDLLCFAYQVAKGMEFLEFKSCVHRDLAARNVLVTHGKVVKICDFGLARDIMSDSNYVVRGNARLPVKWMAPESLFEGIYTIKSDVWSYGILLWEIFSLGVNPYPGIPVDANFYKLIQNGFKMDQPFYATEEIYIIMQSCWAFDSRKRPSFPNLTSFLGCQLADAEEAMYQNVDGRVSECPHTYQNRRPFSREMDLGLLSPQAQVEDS
T20 sequence (P23458 854-1154 limits assumed): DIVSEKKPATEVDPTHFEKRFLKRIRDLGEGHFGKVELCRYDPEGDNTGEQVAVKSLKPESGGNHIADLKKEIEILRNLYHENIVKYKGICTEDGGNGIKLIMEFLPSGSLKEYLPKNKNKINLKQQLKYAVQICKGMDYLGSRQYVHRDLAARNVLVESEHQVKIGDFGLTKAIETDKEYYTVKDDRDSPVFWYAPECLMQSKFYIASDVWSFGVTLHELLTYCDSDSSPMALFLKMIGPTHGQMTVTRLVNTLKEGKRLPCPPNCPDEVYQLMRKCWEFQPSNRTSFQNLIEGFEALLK

`CC(C)NC(=O)COc1cccc(-c2nc(Nc3ccc4[nH]ncc4c3)c3ccccc3n2)c1` [KD025, 2-(3-(4-((1H-indazol-5-yl)amino)quinazolin-2-yl)phenoxy)-N-isopropylacetamide] showed a remaining binding at 10 µM (FLT1) of 95%, a remaining binding at 10 µM (TAOK2) of 83% and a remaining binding at 10 µM (CAMKK2) of 100%. For the same compound, the remaining binding at 10 µM (SGK) was 95%, the remaining binding at 10 µM (PIK3CA(H1047Y)) was 87% and the remaining binding at 10 µM (IGF1R) was 56%. It also gave a remaining binding at 10 µM (EPHB6) of 67%, a remaining binding at 10 µM (LIMK2) of 73% and a remaining binding at 10 µM (PAK7) of 100%. The remaining binding at 10 µM (KIT(A829P)) was 53%, the remaining binding at 10 µM (MEK6) was 87% and the remaining binding at 10 µM (PAK1) was 56%. The “lipid accumulation / adipocyte differentiation (ORO staining)” value (3T3-L1 cells; 3T3-L1, treated during differentiation, stained at day 8) was “suppressed the generation of lipid droplets; also recorded: reduces fat accumulation”, the “quantity of lipid droplets (ORO staining)” value (3T3-L1 cells; 3T3-L1, treated during the early (days 0–1) or late (days 5–8) stage) was “ineffective; also recorded: lesser effect” and the “quantity of lipid droplets (ORO staining)” value (3T3-L1 cells; 3T3-L1, treated during the intermediate stage (days 1–3)) was “acted specifically in the middle stage; also recorded: significantly reduced”. It also gave a remaining binding at 10 µM (CSNK1G3) of 100%, a remaining binding at 10 µM (YSK4) of 66% and a remaining binding at 10 µM (LATS1) of 48%. For the same compound, the remaining binding at 10 µM (EPHA3) was 75%, the remaining binding at 10 µM (AKT2) was 90% and the remaining binding at 10 µM (FLT3-autoinhibited) was 71%. The remaining binding at 10 µM [1] was 100%, the remaining binding at 10 µM [2] was 99% and the remaining binding at 10 µM (PKAC-alpha) was 100%. It also gave a remaining binding at 10 µM (NLK) of 80%, a remaining binding at 10 µM (GRK2) of 89% and a remaining binding at 10 µM (CDK4-cyclinD1) of 89%. The remaining binding at 10 µM (TIE2) was 55%, the remaining binding at 10 µM (TSSK1B) was 76% and the remaining binding at 10 µM (PKN2) was 84%. It also gave a remaining binding at 10 µM (CSNK1A1) of 80%, a remaining binding at 10 µM (MYLK4) of 17% and a remaining binding at 10 µM (HCK) of 95%. For the same compound, the remaining binding at 10 µM (AAK1) was 29% and the remaining binding at 10 µM (DCAMKL3) was 64%.
